Laboratory results published in patent publication US9708368B2, “Linear peptide antibiotics” (priority 2012, dated 2017).
In brackets after ≈: the same amount, converted by molar mass. Numbered stars: 1 amine (or outer) side, 2 acyl side, 3 side chain; on linkers, the order of the positions; unused ones are H or OH. Square brackets hold non-standard residues; d marks the D form. Peptide text beside a SMILES is read from it. * marks the point of attachment. ξ: configuration not given here. boroAla((+)-pinanediol) = C[C@H](N*)B1O[C@@H]2C[C@@H]3C[C@@H](C3(C)C)[C@]2(C)O1; Biphenylcarbonyl(4'-Bu) = CCCCc1ccc(-c2ccc(C(=O)*)cc2)cc1; X1 = C[C@H](N*)B1OC2C[C@@H]3C[C@@H](C3(C)C)[C@]2(C)O1; Benzoyl(4-(4-Cl-Ph)) = O=C(c1ccc(-c2ccc(Cl)cc2)cc1)*; ξ3Amino2oxobutanoyl = CC(N[*:1])C(=O)C(=O)[*:2]; Benzoyl(4-hexyl) = CCCCCCc1ccc(C(=O)*)cc1; X4 = CCCCc1ccc(-c2c[nH]c(C(=O)*)c2)cc1; X19 = O=C(CCCCC12CC3CC(CC(C3)C1)C2)*; NMeY = CN[C@@H](Cc1ccc(O)cc1)C(=O)O; NMeThr(3ξ) = CN[C@H](C(=O)O)C(C)O; X9 = COC(=O)CN1C[C@@H](N*)C1=O; Thr(3ξ) = CC(O)[C@H](N)C(=O)O; Tle = CC(C)(C)[C@H](N)C(=O)O; boroAla = C[C@H](N*)B(O)O; Orn = NCCC[C@H](N)C(=O)O; Dab = NCC[C@H](N)C(=O)O; Abu = CC[C@H](N)C(=O)O; Dap = NC[C@H](N)C(=O)O; boroGly = OB(O)CN*; βAla = NCCC(=O)O

Tests used:
[1] = test system: Escherichia coli strain MC4100 IMP-4213, which harbors an LptD mutation; conditions: Method B; E. coli MC4100 IMP-4213 (LptD mutation); 35° C., 22 hours
Description: In vitro antimicrobial activity of each compound was determined by measuring minimal inhibitor concentrations (MICs) using the broth micro-dilution technique as approved by the Clinical and Laboratory Standards Institute (CLSI). […] Bacterial inocula were prepared by scraping cells into 1 mL of testing media (cation adjusted Mueller Hinton Broth supplemented with 0.002% v/v Tween-80) and diluting to a final OD600 nm of 0.01.
Test compounds were prepared in DMSO at a concentration of 10 mg/ml. […] Bacterial inocula were added to the two fold serial dilutions of test compounds to a final density of OD OD600 nm of 0.0005 and incubated stationarily at 35° C. for 22 hours, after which the plates were examined visually.

[2] = test system: methicillin resistant Staphylococcus aureus (MRSA) strain USA300 (NRS384); conditions: Method B, 35° C., 22 hours
S. aureus SPase = S. aureus SPase (Staphylococcus aureus, UniProt P0A070); assay: biochemical
Description: Full length His-tagged S. aureus SPase protein was expressed similarly from E. coli BL21(DE3) containing the plasmid pCDF1-SaSpsB and purified similarly to the E. coli protein with the following exceptions. […] Protein purity was judged to exceed 95% by visual inspection of SDS-PAGE followed by Comassie staining. All protein concentrations were determined by BCA assay.
Reactions were initiated by the addition of substrate to a final concentration of 20 μM. Reaction progress was monitored by measuring the increase in fluorescence signal (excitation at 314 nm, emission at 416 nm) using a SpectraMax M2 fluorescence microplate reader. […] Three-folder serial dilutions of test compounds, starting at 10 μM, were prepared in enzyme mix solution and incubated at room temperature for 10 minutes. Following this incubation, fluorogenic substrate was added to a final concentration of 20 μM and the increase in fluorescence, corresponding to substrate cleavage, was monitored continuously at room temperature for 1 hour. Initial reaction rates were calculated based on the rate of increase in fluorescence during the reaction. Reaction rates were plotted as a function of compound concentration, and IC50 values are determined nonlinear regression analysis (SoftMaxPro 5.4, Molecular Devices™) of the sigmoidal dose-response curve.

E. coli SPase = E. coli SPase (Escherichia coli, UniProt P00803); assay: Biochemical SPase activity assay (fluorogenic peptide substrate), E. coli enzyme
Chain of E. coli SPase (P00803 whole entry): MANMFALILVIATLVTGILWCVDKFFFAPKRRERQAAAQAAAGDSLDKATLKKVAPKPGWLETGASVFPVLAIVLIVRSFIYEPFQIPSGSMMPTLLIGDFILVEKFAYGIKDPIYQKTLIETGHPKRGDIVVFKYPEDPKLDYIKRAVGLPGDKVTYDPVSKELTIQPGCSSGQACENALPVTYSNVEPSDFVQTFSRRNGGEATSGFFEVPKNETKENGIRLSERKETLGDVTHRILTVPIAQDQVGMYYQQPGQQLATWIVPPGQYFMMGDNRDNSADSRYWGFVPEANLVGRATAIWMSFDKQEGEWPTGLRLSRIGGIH

Chain of S. aureus SPase (P0A070 whole entry): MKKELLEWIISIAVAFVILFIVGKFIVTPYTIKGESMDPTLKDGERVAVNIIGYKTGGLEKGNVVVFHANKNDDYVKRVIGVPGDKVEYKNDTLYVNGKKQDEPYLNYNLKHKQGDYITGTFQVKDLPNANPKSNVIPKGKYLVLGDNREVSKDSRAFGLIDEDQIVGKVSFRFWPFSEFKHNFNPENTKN

SMILES | MIC (μg/mL) E. coli [1] | MIC (μg/mL) S. aureus [2] | IC50 (S. aureus SPase) | IC50 (E. coli SPase)
CCCCc1ccc(-c2ccc(C(=O)N[C@@H](CCCN)C(=O)N[C@H](C(=O)N[C@@H](C)C(=O)N[C@@H](CCCCN)C(=O)N[C@@H](C)B3OC4C[C@@H]5C[C@@H](C5(C)C)[C@]4(C)O3)[C@@H](C)O)cc2)cc1 (some centres unmarked) [Compound 142] ({Biphenylcarbonyl(4'-Bu)}-[Orn]TAK-X1) | 0.5 µg/mL (≈ 0.572 µM) | 0.22 µg/mL (≈ 0.252 µM) | 34 nM | 15 nM
CCCCc1ccc(-c2ccc(C(=O)NCCC(=O)N[C@@H](CCCCN)C(=O)N[C@@H](CCCCN)C(=O)N[C@@H](C)C(=O)N[C@@H](CCCCN)C(=O)N[C@@H](C)B(O)O)cc2)cc1 [Compound 224] ({Biphenylcarbonyl(4'-Bu)-βAla}-KKAK-boroAla) | 2.8 µg/mL (≈ 3.29 µM) | 0.13 µg/mL (≈ 0.153 µM) | 12 nM | 55 nM
CCCCc1ccc(-c2ccc(C(=O)N[C@@H](CCCCN)C(=O)N(C)[C@@H](Cc3ccc(O)cc3)C(=O)N[C@@H](C)C(=O)N[C@@H](CCCCN)C(=O)N[C@@H](C)B(O)O)cc2)cc1 [Compound 157] ({Biphenylcarbonyl(4'-Bu)}-K[NMeY]AK-boroAla) | 4 µg/mL (≈ 4.82 µM) | 2 µg/mL (≈ 2.41 µM) | 1000 nM | 130 nM
CCCCc1ccc(-c2ccc(C(=O)NCCC(=O)N[C@@H](CCCCN)C(=O)N3CCC[C@H]3C(=O)N[C@@H](C)C(=O)N[C@@H](CCCCN)C(=O)N[C@@H](C)B3OC4C[C@@H]5C[C@@H](C5(C)C)[C@]4(C)O3)cc2)cc1 (some centres unmarked) [Compound 214] ({Biphenylcarbonyl(4'-Bu)-βAla}-KPAK-X1) | 5.7 µg/mL (≈ 5.97 µM) | 0.35 µg/mL (≈ 0.366 µM) | 17 nM | 77 nM
CCCCc1ccc(-c2ccc(C(=O)NCCC(=O)N[C@@H](CCCCN)C(=O)N[C@H](C(=O)N[C@@H](C)C(=O)N[C@@H](CCCCN)C(=O)N[C@@H](C)B3OC4C[C@@H]5C[C@@H](C5(C)C)[C@]4(C)O3)[C@@H](C)O)cc2)cc1 (some centres unmarked) [Compound 193] ({Biphenylcarbonyl(4'-Bu)-βAla}-KTAK-X1) | 5 µg/mL (≈ 5.21 µM) | 0.16 µg/mL (≈ 0.167 µM) | 3 nM | 15 nM
CCCCc1ccc(-c2ccc(C(=O)N[C@@H](CCCN)C(=O)N[C@H](C(=O)N[C@@H](CC)C(=O)N[C@@H](CCCCN)C(=O)N[C@@H](C)B3OC4C[C@@H]5C[C@@H](C5(C)C)[C@]4(C)O3)C(C)O)cc2)cc1 (some centres unmarked) [Compound 150] ({Biphenylcarbonyl(4'-Bu)}-[Orn][Thr(3ξ)][Abu]K-X1) | 0.5 µg/mL (≈ 0.563 µM) | 0.3 µg/mL (≈ 0.338 µM) | 270 nM | 6 nM
CCCCc1ccc(-c2ccc(OC(=O)N[C@@H](CCCCN)C(=O)N[C@H](C(=O)N[C@@H](C)C(=O)N[C@@H](CC(N)=O)C(=O)N[C@@H](C)B3OC4C[C@@H]5C[C@@H](C5(C)C)[C@]4(C)O3)[C@@H](C)O)cc2)cc1 (some centres unmarked) [Compound 262] | 8 µg/mL (≈ 8.99 µM) | 2.8 µg/mL (≈ 3.15 µM) | 15 nM | 37 nM
CCCCc1ccc(-c2ccc(CNCC[C@H](N)C(=O)N[C@H](C(=O)N[C@@H](C)C(=O)N[C@@H](CCCCN)C(=O)N[C@@H](C)B3OC4C[C@@H]5C[C@@H](C5(C)C)[C@]4(C)O3)[C@@H](C)O)cc2)cc1 (some centres unmarked) [Compound 276] | 16 µg/mL (≈ 18.9 µM) | 0.5 µg/mL (≈ 0.591 µM) | 110 nM | 2000 nM
CCCCc1ccc(-c2ccc(C(=O)N[C@H]3CN[C@H](C(=O)N[C@H](C(=O)N[C@@H](C)C(=O)N[C@@H](CCCCN)C(=O)N[C@@H](C)B4OC5C[C@@H]6C[C@@H](C6(C)C)[C@]5(C)O4)[C@@H](C)O)C3)cc2)cc1 (some centres unmarked) [Compound 269] | 8 µg/mL (≈ 9.18 µM) | 0.5 µg/mL (≈ 0.573 µM) | 340 nM | 1800 nM
CCCCc1ccc(-c2ccc(CNCCC(=O)N[C@H](C(=O)N[C@@H](C)C(=O)N[C@@H](CCCCN)C(=O)N[C@@H](C)B3O[C@@H]4C[C@@H]5C[C@@H](C5(C)C)[C@]4(C)O3)[C@@H](C)O)cc2)cc1 [Compound 270] | 8 µg/mL (≈ 9.79 µM) | 0.5 µg/mL (≈ 0.612 µM) | 120 nM | 650 nM
C[C@H](NC(=O)[C@H](CCCCN)NC(=O)[C@H](C)NC(=O)[C@@H](NC(=O)[C@H](CCN)NC(=O)CCCCC12CC3CC(CC(C3)C1)C2)[C@@H](C)O)B1OC2C[C@@H]3C[C@@H](C3(C)C)[C@]2(C)O1 (some centres unmarked) [Compound 239] (X19-[Dab]TAK-X1) | 2 µg/mL (≈ 2.38 µM) | 0.71 µg/mL (≈ 0.843 µM) | 670 nM | 17 nM
CCCCc1ccc(-c2ccc(C(=O)NCCC(=O)N[C@@H](CCCCN)C(=O)N[C@@H](Cc3ccc(O)cc3)C(=O)N[C@@H](C)C(=O)N[C@@H](CCCCN)C(=O)N[C@@H](C)B(O)O)cc2)cc1 [Compound 215] ({Biphenylcarbonyl(4'-Bu)-βAla}-KYAK-boroAla) | 4 µg/mL (≈ 4.51 µM) | 0.5 µg/mL (≈ 0.564 µM) | 17 nM | 77 nM
CCCCc1ccc(-c2c[nH]c(C(=O)N[C@@H](CCN)C(=O)N[C@H](C(=O)N[C@@H](C)C(=O)N[C@@H](CCCCN)C(=O)N[C@@H](C)B3O[C@@H]4C[C@@H]5C[C@@H](C5(C)C)[C@]4(C)O3)[C@@H](C)O)c2)cc1 [Compound 247] (X4-[Dab]TAK-{boroAla((+)-pinanediol)}) | 0.5 µg/mL (≈ 0.589 µM) | 0.5 µg/mL (≈ 0.589 µM) | 110 nM | 17 nM
C[C@H](NC(=O)[C@H](CCCCN)NC(=O)[C@H](C)NC(=O)[C@H](CCCCN)NC(=O)[C@H](CN)NC(=O)c1ccc(-c2ccc(Cl)cc2)cc1)B1OC2C[C@@H]3C[C@@H](C3(C)C)[C@]2(C)O1 (some centres unmarked) [Compound 168] ({Benzoyl(4-(4-Cl-Ph))}-[Dap]KAK-X1) | 1 µg/mL (≈ 1.17 µM) | 0.79 µg/mL (≈ 0.928 µM) | 250 nM | 5.4 nM
CCCCc1ccc(-c2ccc(CN[C@@H](CCN)C(=O)N[C@H](C(=O)N[C@@H](C)C(=O)N[C@@H](CCCCN)C(=O)N[C@@H](C)B(O)O)[C@@H](C)O)cc2)cc1 [Compound 267] | – | – | 33 nM | 11 nM
CCCCCCc1ccc(C(=O)N[C@H](CO)C(=O)N[C@H](C)C(=O)NCC(=O)N(C)[C@H](C(=O)N[C@@H](C)C(=O)N[C@@H](CC(N)=O)C(=O)NC(C)C(=O)C(=O)NC)C(C)O)cc1 (some centres unmarked) [Compound 113] ({Benzoyl(4-hexyl)}-[dS][dA]G[NMeThr(3ξ)]AN[ξ3Amino2oxobutanoyl]-NHMe) | – | – | 470 nM | –
CCCCc1ccc(-c2ccc(C(=O)N[C@@H](CCCCN)C(=O)N3CCC[C@H]3C(=O)N[C@@H](C)C(=O)N[C@@H](CCCCN)C(=O)N[C@@H]3CN(CC(=O)OC)C3=O)cc2)cc1 [Compound 258] ({Biphenylcarbonyl(4'-Bu)}-KPAK-X9) | 23 µg/mL (≈ 28.1 µM) | >64 µg/mL | 50000 nM | –
CC(C)C[C@H](NC(=O)[C@H](C)NC(=O)[C@H](CCCCN)NC(=O)[C@H](CCCCN)NC(=O)c1ccc(-c2ccc(Cl)cc2)cc1)C(=O)N[C@@H](C)B(O)O [Compound 155] ({Benzoyl(4-(4-Cl-Ph))}-KKAL-boroAla) | – | – | 250 nM | 39 nM
CCCCc1ccc(-c2ccc(C(=O)N[C@@H](CCN)C(=O)N[C@H](C(=O)N[C@@H](C)C(=O)N[C@@H](CCCCN)C(=O)N[C@@H](C)B(O)O)[C@@H](C)O)cc2)cc1 [Compound 267] ({Biphenylcarbonyl(4'-Bu)}-[Dab]TAK-boroAla) | – | 0.13 µg/mL (≈ 0.179 µM) | – | –
CCCCCCc1ccc(C(=O)N[C@H](CO)C(=O)N[C@H](C)C(=O)NCC(=O)N(C)[C@H](C(=O)N[C@@H](C)C(=O)N[C@@H](CC(C)C)C(=O)NC(C)C(=O)C(=O)NC)C(C)O)cc1 (some centres unmarked) [Compound 114] ({Benzoyl(4-hexyl)}-[dS][dA]G[NMeThr(3ξ)]AL[ξ3Amino2oxobutanoyl]-NHMe) | – | – | 390 nM | –
CCCCc1ccc(-c2ccc(C(=O)NCCC(=O)N[C@@H](CCCCN)C(=O)N[C@H](C(=O)N[C@@H](C)C(=O)N[C@H](C(=O)N[C@@H](C)B3OC4C[C@@H]5C[C@@H](C5(C)C)[C@]4(C)O3)C(C)(C)C)[C@@H](C)O)cc2)cc1 (some centres unmarked) [Compound 211] ({Biphenylcarbonyl(4'-Bu)-βAla}-KTA[Tle]-X1) | 32 µg/mL (≈ 33.9 µM) | 0.71 µg/mL (≈ 0.752 µM) | 36 nM | –
CCCCCCc1ccc(C(=O)N[C@H](CO)C(=O)N[C@H](C)C(=O)NCC(=O)N(C)[C@H](C(=O)N[C@@H](C)C(=O)N[C@@H](CC(C)C)C(=O)NCB(O)O)C(C)O)cc1 (some centres unmarked) [Compound 125] ({Benzoyl(4-hexyl)}-[dS][dA]G[NMeThr(3ξ)]AL-boroGly) | – | – | 55 nM | 730 nM
